Experimental data: ChEMBL document CHEMBL4196217, “Structure-Based Drug Design and Identification of H2O-Soluble and Low Toxic Hexacyclic Camptothecin Derivatives with Improved Efficacy in Cancer and Lethal Inflammation Models in Vivo” (J Med Chem, 2018)
The source made the active and inactive calls. The calls are words filed in the database; no cut-off is given here.

Experiments:
[1] = Drug level in plasma of C57BL/6 mouse at 10 mg/kg, po measured up to 30 hrs by LC-MS/MS analysis; format: ADME, organism-based; details: in vivo
HepG2 [2] = assay: Antitumor activity against human HepG2 cells xenografted in Balb/C mouse assessed as inhibition of tumor growth at 30 mg/kg, iv dosed once per week for 30 days followed by 2 weeks observation relative untreated control; format: functional; details: read-out: TGI
Mus musculus [3] = assay: Toxicity in human HepG2 cells xenografted Balb/C mouse assessed as induction of gastrointestinal flatulence at 8 mg/kg, iv dosed once per week for 30 days followed by 2 weeks observation; format: organism-based; details: in vivo, 336 h
Mus musculus [4] = assay: Toxicity in human HepG2 cells xenografted Balb/C mouse assessed as reduction in body weight at 4 mg/kg, iv dosed once per week for 30 days followed by 2 weeks observation; format: organism-based; details: in vivo, 336 h
Mus musculus [5] = assay: Toxicity in human HepG2 cells xenografted Balb/C mouse assessed as effect on mouse survival at 4 mg/kg, iv dosed once per week for 30 days followed by 2 weeks observation; format: organism-based; details: in vivo, 336 h
HepG2 [6] = assay: Antitumor activity against human HepG2 cells xenografted in Balb/C mouse assessed as inhibition of tumor growth at 4 mg/kg, iv dosed once per week for 30 days followed by 2 weeks observation relative untreated control; format: functional; details: read-out: TGI
SMMC-7721 = assay: Cytotoxicity in human SMMC7721 cells assessed as reduction in cell viability incubated for 48 hrs by MTT assay; format: functional, cell-based; details: SMMC-7721, 48 h
SK-N-SH = assay: Cytotoxicity in human SK-N-SH cells assessed as reduction in cell viability incubated for 48 hrs by MTT assay; format: functional, cell-based
MDA-MB-231 = assay: Cytotoxicity in human MDA-MB-231 cells assessed as reduction in cell viability incubated for 48 hrs by MTT assay; format: functional, cell-based; details: MDA-MB-231, 48 h
Mus musculus [7] = assay: Toxicity in human HepG2 cells xenografted Balb/C mouse assessed as reduction in body weight at 8 mg/kg, iv dosed once per week for 30 days followed by 2 weeks observation; format: organism-based; details: in vivo, 336 h
[8] = Drug metabolism in plasma of C57BL/6 mouse assessed as (S)-8-Ethyl-8-hydroxy-2-isopropyl-8H-oxazolo[4,5-f ]-pyrano[3',4':6,7]indolizino[1,2-b]quinoline-9,12(11H,14H)-dione formation at 10 mg/kg, po measured up to 1 hr by LC-MS/MS analysis; format: ADME, organism-based; details: in vivo
HepG2 [9] = assay: Cytotoxicity in human HepG2 cells assessed as reduction in cell viability incubated for 48 hrs by MTT assay; format: functional, cell-based; details: HepG2, 48 h
MGC-803 = assay: Cytotoxicity in human MGC803 cells assessed as reduction in cell viability incubated for 48 hrs by MTT assay; format: functional, cell-based; details: MGC-803, 48 h
Mus musculus [10] = assay: Toxicity in human HepG2 cells xenografted Balb/C mouse assessed as effect on mouse survival at 1.3 mg/kg, po qd for 30 days followed by 2 weeks observation; format: organism-based; details: in vivo, 336 h
A549 = assay: cells; details: Homo sapiens, A549, 48 h
Description: Cytotoxicity in human A549 cells assessed as reduction in cell viability incubated for 48 hrs by MTT assay

HepG2 [11] = assay: Antitumor activity against human HepG2 cells xenografted in Balb/C mouse assessed as inhibition of tumor growth at 8 mg/kg, iv dosed once per week for 30 days followed by 2 weeks observation relative untreated control; format: functional; details: read-out: TGI
Mus musculus [12] = assay: Toxicity in human HepG2 cells xenografted Balb/C mouse assessed as reduction in body weight at 1.3 mg/kg, po qd for 30 days followed by 2 weeks observation; format: organism-based; details: in vivo, 336 h
Bel-7402 = assay: Cytotoxicity in human Bel7402 cells assessed as reduction in cell viability incubated for 48 hrs by MTT assay; format: functional, cell-based; details: Bel-7402, 48 h
[13] = Drug metabolism in plasma of C57BL/6 mouse assessed as (9S)-9-Ethyl-9-hydroxy-3-isopropyl-2,3-dihydro[1,3]-oxazino[5,6-f ]pyrano[3',4':6,7]indolizino[1,2-b]quinoline-1,10,13(9H,12H,15H)-trione formation at 10 mg/kg, po measured up to 1 hr by LC-MS/MS analysis; format: ADME, organism-based; details: in vivo
KB = assay: Cytotoxicity in human KB cells assessed as reduction in cell viability incubated for 48 hrs by MTT assay; format: functional, cell-based
Mus musculus [14] = assay: Toxicity in human HepG2 cells xenografted Balb/C mouse assessed as induction of gastrointestinal flatulence at 1/3 mg/kg, po qd for 30 days followed by 2 weeks observation; format: organism-based; details: in vivo, 336 h
HepG2 [15] = assay: Antitumor activity against human HepG2 cells xenografted in Balb/C mouse assessed as inhibition of tumor growth at 1.3 mg/kg, po qd for 30 days followed by 2 weeks observation relative untreated control; format: functional; details: read-out: TGI
Mus musculus [16] = assay: Protection against LPS-induced lethal inflammation in C57BL/6 mouse model of sepsis assessed as survival at 4 mg/kg, po dosed 0.5 hrs before LPS injection followed by 4 mg/kg, po dosing at 1 hr, 4 hrs, and 8 hrs after LPS treatment; format: functional
Mus musculus [17] = assay: Toxicity in human HepG2 cells xenografted Balb/C mouse assessed as induction of gastrointestinal flatulence at 4 mg/kg, iv dosed once per week for 30 days followed by 2 weeks observation; format: organism-based; details: in vivo, 336 h
MCF7 = assay: cells; details: Homo sapiens, MCF7, 48 h
Description: Cytotoxicity in human MCF7 cells assessed as reduction in cell viability incubated for 48 hrs by MTT assay

SGC-7901 = assay: Cytotoxicity in human SGC7901 cells assessed as reduction in cell viability incubated for 48 hrs by MTT assay; format: functional, cell-based; details: SGC-7901, 48 h
[18] = Drug metabolism in plasma of C57BL/6 mouse assessed as (9S)-9-Ethyl-9-hydroxy-3-isopropyl-2,3-dihydro[1,3]-oxazino[5,6-f ]pyrano[3',4':6,7]indolizino[1,2-b]quinoline-1,10,13(9H,12H,15H)-trione formation at 10 mg/kg, iv measured up to 1 hr by LC-MS/MS analysis; format: ADME, organism-based; details: in vivo
Mus musculus [19] = assay: Toxicity in human HepG2 cells xenografted Balb/C mouse assessed as effect on mouse survival at 8 mg/kg, iv dosed once per week for 30 days followed by 2 weeks observation; format: organism-based; details: in vivo, 336 h
QGY-7703 = assay: Cytotoxicity in human QGY7703 cells assessed as reduction in cell viability incubated for 48 hrs by MTT assay; format: functional, cell-based; details: QGY-7703, 48 h
HepG2 [20] = assay: Antitumor activity against human HepG2 cells xenografted in Balb/C mouse assessed as inhibition of tumor growth at 2 mg/kg, iv dosed once per week for 30 days followed by 2 weeks observation; format: functional, organism-based
HepG2 [21] = assay: Antitumor activity against human HepG2 cells xenografted in Balb/C mouse assessed as inhibition of tumor growth at 2 mg/kg, iv dosed once per week for 30 days followed by 2 weeks observation relative untreated control; format: functional; details: read-out: TGI
[22] = target: T1, DNA topoisomerase 1 (Homo sapiens) (UniProt P11387); assay: Inhibition of human recombinant topoisomerase-1-mediated DNA cleavage in at 50 uM using supercoiled pHOT-1 DNA incubated for 30 mins by ethidium bromide staining based agarose gel elctrophoresis method
T1 sequence (whole entry): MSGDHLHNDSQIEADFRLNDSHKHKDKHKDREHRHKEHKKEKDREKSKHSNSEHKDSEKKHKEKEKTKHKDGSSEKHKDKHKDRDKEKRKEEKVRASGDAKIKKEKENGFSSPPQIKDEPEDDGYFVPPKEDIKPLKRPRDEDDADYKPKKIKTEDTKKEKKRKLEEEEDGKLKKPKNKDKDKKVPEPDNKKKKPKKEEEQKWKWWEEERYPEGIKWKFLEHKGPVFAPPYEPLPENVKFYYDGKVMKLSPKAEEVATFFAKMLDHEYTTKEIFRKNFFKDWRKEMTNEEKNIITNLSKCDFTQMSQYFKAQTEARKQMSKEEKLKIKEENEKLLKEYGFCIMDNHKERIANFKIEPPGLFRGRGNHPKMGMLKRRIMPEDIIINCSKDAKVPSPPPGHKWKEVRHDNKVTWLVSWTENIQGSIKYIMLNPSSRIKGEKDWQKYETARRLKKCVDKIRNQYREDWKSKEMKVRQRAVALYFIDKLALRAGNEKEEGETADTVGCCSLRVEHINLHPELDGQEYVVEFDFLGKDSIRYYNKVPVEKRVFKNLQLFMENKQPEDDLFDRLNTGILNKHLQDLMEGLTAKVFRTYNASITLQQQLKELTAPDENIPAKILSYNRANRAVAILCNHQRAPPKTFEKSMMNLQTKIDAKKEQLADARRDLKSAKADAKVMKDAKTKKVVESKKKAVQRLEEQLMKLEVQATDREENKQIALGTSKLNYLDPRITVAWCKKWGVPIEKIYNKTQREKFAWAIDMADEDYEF

Mus musculus [23] = assay: Toxicity in human HepG2 cells xenografted Balb/C mouse assessed as reduction in body weight at 2 mg/kg, iv dosed once per week for 30 days followed by 2 weeks observation; format: organism-based; details: in vivo, 336 h
Mus musculus [24] = assay: Toxicity in Balb/C mouse administered as daily dose for 1 week measured daily for up to 28 days; format: organism-based; details: in vivo
[25] = Aqueous solubility of the compound; format: physicochemical; details: aqueous; read-out: solubility
[26] = target: T1, DNA topoisomerase 1 (Homo sapiens); assay: Inhibition of human recombinant topoisomerase-1-mediated DNA cleavage in at 100 uM using supercoiled pHOT-1 DNA incubated for 30 mins by ethidium bromide staining based agarose gel elctrophoresis method

SMILES: CC[C@@]1(OC(=O)CNC(=O)CCC(=O)O)C(=O)OCc2c1cc1n(c2=O)Cc2cc3c4c(ccc3nc2-1)OC(C(C)C)NC4=O (stereo not given in full)
- Drug uptake [1]: Not Active
- inhibition in vivo at 30 mg/kg (HepG2 [2]): 90%
- Activity (Mus musculus [3]): Toxic
- Activity (Mus musculus [4]): Non-Toxic
- Activity (Mus musculus [5]): Non-Toxic
- inhibition in vivo at 4 mg/kg (HepG2 [6]): 83%
- IC50 (SMMC-7721): > 10 µM
- IC50 (SK-N-SH): 0.194 µM
- IC50 (MDA-MB-231): 5.02 µM
- Activity (Mus musculus [7]): Non-Toxic
- Drug metabolism [8]: Metabolite_Notdetected
- IC50 (HepG2 [9]): 0.971 µM
- IC50 (MGC-803): 0.971 µM
- Activity (Mus musculus [10]): Non-Toxic
- IC50 (A549): 6.47 µM
- inhibition in vivo at 8 mg/kg (HepG2 [11]): 93%
- Activity (Mus musculus [12]): Non-Toxic
- IC50 (Bel-7402): > 10 µM
- Drug metabolism [13]: Metabolite_Notdetected
- IC50 (KB): 7.28 µM
- Activity (Mus musculus [14]): Toxic
- inhibition in vivo at 1.3 mg/kg (HepG2 [15]): 93%
- Activity (Mus musculus [16]): 100%
- Activity (Mus musculus [17]): Toxic
- IC50 (MCF7): > 10 µM
- IC50 (SGC-7901): > 10 µM
- Drug metabolism [18]: Metabolite_Notdetected
- Activity (Mus musculus [19]): Non-Toxic
- IC50 (QGY-7703): > 10 µM

SMILES: CC[C@@]1(O)C(=O)OCc2c1cc1n(c2=O)Cc2cc3c(CN(C)C)c(O)ccc3nc2-1 [TOPOTECAN]
- TGI (HepG2 [20]): Active
- IC50 (SMMC-7721): 11.6 µM
- IC50 (SK-N-SH): 0.093 µM
- IC50 (MDA-MB-231): 1.9 µM
- IC50 (HepG2 [9]): 0.237 µM
- inhibition in vivo at 2 mg/kg (HepG2 [21]): 74%
- IC50 (MGC-803): 0.19 µM
- inhibition [22]: Active
- Activity (Mus musculus [23]): Toxic
- IC50 (Bel-7402): 7.12 µM
- MTD (Mus musculus [24]): 2 mg/kg
- IC50 (MCF7): 2.14 µM
- solubility [25]: < 1000 µg/mL
- IC50 (SGC-7901): > 10 µM
- inhibition [26]: Active
- IC50 (QGY-7703): 11.9 µM
